Experimental data from patent publication US9359371B2, “Bicyclic substituted pyrimidine compounds” (Xuanzhu Pharma Co., Ltd., priority 2012, dated 2016).
Where two headings read alike, the source gives them in different places.

Key:
[1] = molecular target: PDE-11 (Homo sapiens (Human), UniProt Q9HCR9); experiment: Caliper Mobility-Shift PDE-11 Assay; format: biochemical; conditions: Table 4; maximum final concentration 10 μM
Procedure: Experiment 4: Measurement of Pharmacological Activity on PDE-11 Enzyme In Vitro
Method: enzyme assay, Caliper Mobility-Shift PDE-11 Assay
The test compound was accurately weighed, dissolved in DMSO, mixed thoroughly and formulated into 10 mM. The above stock solution was diluted to a concentration of 0.5 mM with DMSO, and then was gradiently diluted by a dilution factor of 3.162, resulting in 11 concentrations in total.
To a 96-well plate, 20 μL of 10 μM FL-cGMP as the substrate was added; then 1 μL solution of the compound in DMSO or DMSO solution without compound was added; and then 29 μL of 0.28 ng/μL PDE-11 enzyme buffer (100 mM Hepes pH 7.5, 5 mM MgCl2, 0.002% Brij-35) was added. The maximum final concentration of the compound was 10 μM. The plate was incubated at 30° C. for 1 h, and 20 μL of 70 μM EDTA was then added to stop the reaction. 26 μL of solution of each well was transferred to a 384-well plate. The conversion was read on a EZ reader II. The Inhibition rate was calculated by the formula below, and used to calculate IC50 by Prism 5.0 Inhibition rate=[Conversion (ZPE)−Conversion (sample)]×100/[Conversion (ZPE)−Conversion (HPE)]
Note: HPE: control without enzyme; ZPE: control without compound

[2] = molecular target: PDE-5A enzyme (Homo sapiens (Human), UniProt O76074); experiment: Caliper Mobility-Shift PDE-5A Assay; format: biochemical; conditions: Table 1; Avanafil value is the control
Procedure: Experiment 1: Measurement of Enzymatic Activity In Vitro
PDE-5A enzyme: humanized PDE-5 enzyme, SignalChem, Cat#93-31G-20.
Method: enzyme assay, Caliper Mobility-Shift PDE-5A Assay:
The test compound was accurately weighed, dissolved in DMSO, mixed thoroughly and formulated into 10 mM.
The maximum final concentration of the compound was 10 μM. The plate was incubated at 30° C. for 1 h, and 20 μL of 70 μM EDTA was then added to stop the reaction. 26 μL of solution of each well was transferred to a 384-well plate. The conversion was read on a EZ reader II. The inhibition rate was calculated by the formula below, and used to calculate IC50 by Prism 5.0 Inhibition rate=[Conversion (ZPE)−Conversion (sample)]×100/[Conversion (ZPE)−Conversion (HPE)]
Note: HPE: control without enzyme; ZPE: control without a test compound

[3] = Pharmacokinetics (PK) in SD rats; format: in vivo; conditions: rat; for bioavailability: read-out: F % (absolute bioavailability)
Procedure: Experiment 9: Assay of Pharmacokinetics (PK) of the Compounds of the Present Invention in SD Rats
Compound 1-54 of the present invention were prepared by the methods described in Example 1 to Example 54 of the present invention.
The control drug Avanafil, of which the structure was stated above, was purchased commercially.
Collection of the rat's blood: The animal was fixed. The tail was warmed with a water bath 10 min before the collection time. About 200 μL of whole blood was collected from the tail vein. The collected blood was collected into anticoagulant tubes containing heparin sodium. The blood samples were centrifuged at 4° C. by 8000 rpm for 6 min to give the plasma samples, which should be prepared within 30 min after the collection of blood. The plasma samples were stored in a freezer of −80° C. until test.
The result output by Analyst 1.5.1 of AB Company was used as the concentration of the tested sample (plasma sample). The mean value, standard deviation, variable coefficient and the like were calculated by Microsoft Excel (except for the result directly output by Analyst 1.5.1). Parameters of PK were calculated by Pharsight Phoenix 6.2 software. Formula for calculating oral bioavailability: F %=AUCinf−po*Doseiv/AUCinf−iv*Dosepo.

[4] = SD, plasma, po, intragastric administration, 1 mg/kg
[5] = SD, plasma, intravenous injection, 1 mg/kg
[6] = SD, plasma, po, intragastric administration, 2 mg/kg

Chain of PDE-11 (Q9HCR9 whole entry): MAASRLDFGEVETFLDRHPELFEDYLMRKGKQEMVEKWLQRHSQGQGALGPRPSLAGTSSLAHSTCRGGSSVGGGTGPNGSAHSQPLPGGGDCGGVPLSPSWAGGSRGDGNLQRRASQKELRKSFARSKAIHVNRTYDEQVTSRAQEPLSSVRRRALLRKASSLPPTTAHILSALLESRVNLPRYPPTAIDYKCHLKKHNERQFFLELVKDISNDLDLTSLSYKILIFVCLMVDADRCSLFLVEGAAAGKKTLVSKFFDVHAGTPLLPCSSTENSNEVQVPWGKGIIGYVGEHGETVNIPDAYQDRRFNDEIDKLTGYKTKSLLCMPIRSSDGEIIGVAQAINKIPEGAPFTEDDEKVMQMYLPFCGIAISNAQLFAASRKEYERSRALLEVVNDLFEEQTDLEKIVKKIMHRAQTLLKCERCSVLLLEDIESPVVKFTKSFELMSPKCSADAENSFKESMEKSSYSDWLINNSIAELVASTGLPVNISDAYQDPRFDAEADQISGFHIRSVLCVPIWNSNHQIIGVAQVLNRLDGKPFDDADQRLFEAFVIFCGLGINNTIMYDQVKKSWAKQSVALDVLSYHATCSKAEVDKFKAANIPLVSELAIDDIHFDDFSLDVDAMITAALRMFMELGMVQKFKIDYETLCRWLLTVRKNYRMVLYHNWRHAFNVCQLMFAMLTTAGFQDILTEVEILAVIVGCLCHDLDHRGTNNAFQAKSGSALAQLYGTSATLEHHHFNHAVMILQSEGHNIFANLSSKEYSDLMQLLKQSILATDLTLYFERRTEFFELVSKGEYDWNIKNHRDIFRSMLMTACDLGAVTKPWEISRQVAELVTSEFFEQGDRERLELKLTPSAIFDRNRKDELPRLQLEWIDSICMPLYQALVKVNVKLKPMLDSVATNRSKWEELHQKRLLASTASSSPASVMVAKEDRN

| IC50 [1] [µM] | IC50 [2] [µM] | Compound | other results |
| --- | --- | --- | --- |
| > 10 |  | COc1ccc(CNc2nc(N3CCC4(CCN(C)C4)C3)ncc2C(=O)NCc2ncccn2)cc1Cl (stereo not shown) [Compound 18, 4-((3-chloro-4-methoxybenzyl)amino)-2-(7-methyl-2,7-diazaspiro[4.4]nonan-2-yl)-N-(pyrimidin-2-ylmethyl)pyrimidine-5-formamide] |  |
| > 10 | 0.0232 | COc1ccc(CNc2nc(N3CC4CC4C3)ncc2C(=O)NC2CCCCCC2)cc1Cl (stereo not shown) [Compound 9, 2-(3-azabicyclo[3.1.0]hexan-3-yl)-4-((3-chloro-4-methoxybenzyl)amino)-N-cycloheptanylpyrimidine-5-formamide] |  |
| > 10 |  | COc1ccc(CNc2nc(N3CCC4(CC4)C3)ncc2C(=O)NCC2CCC(O)CC2)cc1Cl (stereo not shown) [Compound 47, 4-((3-chloro-4-methoxybenzyl)amino)-N-(4-hydroxycyclohexyl)methyl-2-(5-azaspiro[2.4]heptan-5-yl)pyrimidine-5-formamide] |  |
| > 10 |  | COc1ccc(CNc2nc(N3CCC4(CC4)C3)ncc2C(=O)N[C@H]2CC[C@H](N)CC2)cc1Cl [Compound 44, N-(trans-4-aminocyclohexyl)-4-(3-chloro-4-methoxybenzylamino)-2-(5-azaspiro[2.4]heptan-5-yl)pyrimidine-5-formamide] |  |
| > 10 |  | COc1ccc(CNc2nc(N3CCC4(CC4)C3)ncc2C(=O)NCCN2CCNCC2)cc1Cl [Compound 42, 4-((3-chloro-4-methoxybenzyl)amino)-N-(2-(piperazin-1-yl)ethyl)-2-(5-azaspiro[2.4]heptan-5-yl)pyrimidine-5-formamide] |  |

Further lines, the compound ahead of its results:

| Compound | IC50 [1] [µM] | IC50 [2] [µM] | other results |
| --- | --- | --- | --- |
| COc1ccc(CNc2nc(N3CC4CC4C3)ncc2C(=O)N[C@H]2CCCCNC2=O)cc1Cl (stereo partly shown) [Compound 8, 2-(3-azabicyclo[3.1.0]hexan-3-yl)-4-((3-chloro-4-methoxybenzyl)amino)-N-((s)-caprolactam-3-yl)pyrimidine-5-formamide] | > 10 | 0.0132 |  |
| COc1ccc(CNc2nc(N3CC4CC4C3)ncc2C(=O)NCc2ccc(F)cc2)cc1Cl (stereo not shown) [Compound 5, 2-(3-azabicyclo[3.1.0]hexan-3-yl)-4-((3-chloro-4-methoxybenzyl)amino)-N-(4-fluorobenzyl)pyrimidine-5-formamide] | > 10 | 0.0174 |  |
| COc1ccc(CNc2nc(N3CC4CC4C3)ncc2C(=O)NCCN2CCOCC2)cc1Cl (stereo not shown) [Compound 6, 2-(3-azabicyclo[3.1.0]hexan-3-yl)-4-((3-chloro-4-methoxybenzyl)amino)-N-(2-morpholinylethyl)pyrimidine-5-formamide] | > 10 | 0.00425 |  |
| COc1ccc(CNc2nc(N3CC4CC4C3)ncc2C(=O)NCC2CCNCC2)cc1Cl (stereo not shown) [Compound 7, 2-(3-azabicyclo[3.1.0]hexan-3-yl)-4-((3-chloro-4-methoxybenzyl)amino)-N-(piperdin-4-ylmethyl)pyrimidine-5-formamide] | > 10 |  |  |
| COc1ccc(CNc2nc(N3CCC4(CCC4)CC3)ncc2C(=O)NCc2ncccn2)cc1Cl [Compound 14, 4-((3-chloro-4-methoxybenzyl)amino)-N-(pyrimidin-2-ylmethyl)-2-(7-azaspiro[3.5]nonan-7-yl)pyrimidine-5-formamide] | > 10 |  | AUC(0-inf) [3, 4]: 36 ng·h/mL; Cmax [3, 4]: 5.2 ng/mL; half-life [3, 4]: 2.85 h; bioavailability [3, 4]: 15%; AUC(0-inf) [3, 5]: 237 ng·h/mL; half-life [3, 5]: 1.47 h; Cl_obs ([3]; intravenous injection, 1 mg/kg): 71 mL/min/kg; Vss_obs ([3]; intravenous injection, 1 mg/kg): 8.73 L/kg |
| COc1ccc(CNc2nc(N3CCC4(CC4)C3)ncc2C(=O)N[C@H]2CC[C@H](O)CC2)cc1Cl (stereo in doubt) [Compound 43, 4-((3-chloro-4-methoxybenzyl)amino)-N-(trans-4-hydroxycyclohexyl)-2-(5-azaspiro[2.4]heptan-5-yl)pyrimidine-5-formamide] |  | 0.0154 | half-life [3, 6]: 3.31 h; bioavailability [3, 6]: 18%; half-life [3, 5]: 1.3 h; Cl_obs ([3]; intravenous injection, 1 mg/kg): 53.8 mL/min/kg; Vss_obs ([3]; intravenous injection, 1 mg/kg): 5.18 L/kg |
